The values below come from patent publication EP4703356A1, “SALT OF PIPERIDYLINDOLE COMPOUND AND PREPARATION METHOD THEREFOR” (Shanghai Hansoh Biomedical Co., Ltd., priority 2023, dated 2024).

Data set [1] is described as follows: Pharmacokinetic study in rat eyes. Type of data set: in vivo, brown Norway rats. The following applies: Brown Norway, 2 mg/kg, 2 mpk PO; for half-life: in vivo. As to the method: Three-month-old brown Norway rats were orally gavaged with the example compound as a suspension in 2 equivalents of 1 N HCl + 30% PEG300 + 50% (20% Cremophor EL aqueous solution). At 0.25, 0.5, 1, 6, and 24 hours post-dosing, ocular tissues and plasma were collected from both eyes of the rats at respective time points. The ocular tissues collected comprised retina and the posterior eyecup (RPE/choroid and posterior sclera). Tissues were diluted with phosphate-buffered saline containing 10% acetonitrile, followed by homogenization and centrifugation prior to analysis. At each time point, test article concentrations in plasma and eye homogenate supernatants were measured in four individual retinal samples, four individual posterior eyecup samples and two individual plasma samples by using HPLC-MS/MS. Chromatographic separation was performed on a Waters BEH C18 column (2.1 × 50 mm, 1.7 µm) (MAC-MOD Analytical, Chadds-Ford, PA) with a gradient elution method using water and acetonitrile, both containing 0.025% formic acid-1 M NH4OAc. Mass spectrometry measurements in positive electrospray ionization were performed to quantify mass transitions using [M+H]+ as the precursor ion on an API6500 triple quadrupole mass spectrograph (Sciex, Framingham, MA). The relevant pharmacokinetic parameters were estimated using the non-compartmental method in WinNonlin (Enterprise, version 8.2). Table 3: Rat PK study results (2 mpk PO)

The subject of another data set is AP complement activation. As to the kind of experiment: In vivo assessment of AP complement functional activity in mice (LPS-induced, plasma C3b/iC3b/C3c ELISA). Further details: species or system C57BL/6 mice. The following applies: LPS 2.5 mg/kg i.p. 7.5 hours before end, compound 20 mg/kg oral 20 hours before end. As to the method: 20 hours before the end of the study, female C57BL/6 mice were orally gavaged with the formulation of compound of Example 3 (20 mg/kg, 0.5% (w/v) methylcellulose, 0.5% (v/v) Tween 80). To activate the complement pathway, lipopolysaccharide (LPS) from Salmonella typhimurium (Sigma) was injected intraperitoneally (2.5 mg/kg) 7.5 hours before the end of the study. Control mice received intraperitoneal injections of normal saline and oral gavage administration of vehicles. At the end of the study, plasma samples were collected from the mice. AP complement activation was assessed by measuring plasma C3 cleavage products, C3b/iC3b/C3c, using an ELISA method with rat anti-mouse C3b/iC3b/C3c monoclonal antibodies (clone 2/11, Hycult Biotech, 0.1 µg/well), and a goat anti-rat IgG (whole molecule)-peroxidase (Sigma) diluted in TBST (TBS/0.05% Tween 20). Table 4: Plasma C3b/iC3b/C3c following treatment
On the technique in general: An ELISA detects its analyte on a solid surface through an enzyme-linked reagent.

Data set [2] deals with alternative complement pathway (AP). The data set can be described thus: Assessment of PD inhibition in rat plasma (ex vivo AP ELISA, MAC deposition on LPS, serum after oral dosing). Further details: species or system Sprague-Dawley rats. The following applies: over 24 hours; for inhibition at 2 mg/kg: Rattus norvegicus, rats, oral 2 mg/kg, AP deposition in 50% serum, read-out: Serum PD inhibition (%) over 24 hours (2 mpk). As to the method: Male Sprague-Dawley rats (n = 3) were orally administered with vehicles (0.5% (w/v) methylcellulose, 0.5% (v/v) Tween 80), compound Iptacopan, or example compound formulations (in 0.5% (w/v) methylcellulose, 0.5% (v/v) Tween 80) at a dose of 2 mg/kg. Rat serum samples were collected at 0.25, 0.5, 1, 2, 4, 6, 8, and 24 hours post-dosing, and stored at -80°C. […] The coated plates were washed with GVB buffer (Complement technology) containing 5 mM MgCl2 and 10 mM EGTA (blocking both classical and lectin pathways). The collected serum samples were diluted by adding an equal volume of GVB buffer containing 10 mM MgCl2 and 20 mM EGTA. For negative controls, serum was diluted with GVB buffer containing 40 mM EDTA (blocking all complement pathways). Aliquots (50 ul) of 50% serum samples were added to the LPS-coated wells. The reaction plate was incubated at 37°C for 20 minutes (rat serum). […] Baseline (EDTA-treated serum) and maximum signal (EGTA-treated serum from vehicle-treated rats) were used to generate a percent inhibition value for each well.
Each data point in FIG. 37 represents the mean AP activity in rat serum. […] Table 5: Rat 24-hour PD study results

Data set [3] in a line: Salt form screening (natural evaporation and reactive crystallisation). Type of data set: physicochemical. Also on record: key to PLM/XRPD or slurry solvent: "√" indicates the presence of birefringence phenomenon; "×" indicates the absence of birefringence phenomenon. The following applies: for PLM/XRPD or slurry solvent: 1:1; for Characterization result: reactive crystallisation, Ethyl acetate, 1:1, stirred room temperature about 24 hours. As to the method:
Salt form screening experiments were conducted via the solvent evaporation method. About 10 mg of the free base of Example 3 was weighed into a 2 mL glass vial and dissolved in 100 µL of an organic solvent. A solution of the counterion acid in methanol was added dropwise at a molar ratio of 1:1. The resulting clear solution was allowed to evaporate at room temperature. The obtained solid was first characterised by PLM. If no birefringence was observed, the solids were slurried by adding a solvent. If birefringence was observed, the solids were further characterised by XRPD. Compounds with high crystallinity were selected for characterization by DSC and TGA.
Approximately 10 mg of the free base compound of Example 3 was weighed into a 2 mL glass vial and dissolved in 100 µL of an organic solvent. 22 µL of a solution of the acid in ethyl acetate was slowly added dropwise at a molar ratio of 1 : 1 under stirring. The resulting clear solution was stirred at room temperature for approximately 24 hours. The resulting solid was dried in vacuo at 40°C and characterised by XRPD, DSC and TGA.

Data set [4] has as its target T1, Recombinant human factor B catalytic domain (Homo sapiens, UniProt P00751). The data set can be described thus: TR-FRET factor B binding assay. For orientation: In TR-FRET formats the signal depends on donor and acceptor labels being close together.
Experimental: 5X kinase buffer A (Thermo Fisher, CAT#PV3189) • 3. LANCE Eu-W1024 anti-6xHis antibody (PerkinElmer, CAT#AD0401) • 4. […] Dimethyl sulfoxide (Thermo Fisher Scientific) • 6. Compound - 10 mM stock in DMSO • 7. Victor Nivo multi-mode microplate reader (PerkinElmer) • 8.
The binding affinity of each test compound to factor B was determined using the time-resolved fluorescence resonance energy transfer (TR-FRET) technology. 10 nM recombinant his-tagged factor B catalytic domain, different concentrations of inhibitors, 4 nM LANCE Eu-W1024 anti-6xHis antibody and 100 nM TR-FRET_tool2 tracer were incubated in 1X kinase buffer A for 1 hour. Measurements were performed with a reaction volume of 15 µL by adding 5 µL of the test compound, followed by the addition of 5 µL of a factor B/antibody mixture and 5 µL of the tracer to a white opaque 384-well assay plate.
Data set [5] has as its target T1, Recombinant human factor B catalytic domain. As to the kind of experiment: Target residence time of factor B inhibitors by surface plasmon resonance (SPR). The note with it: for t1/2: binding half-life, t1/2 = ln2/koff; for residence time: read-out: Residence time (s). (In general: Surface plasmon resonance follows binding to a sensor surface in real time, without labels.)
Text: PBS-P+buffer 10X (Cytiva, CAT. No. 28995084) • 3. Series S Sensor Chip NTA (Cytiva, CAT# BR100532) • 4. Amine coupling kit (Cytiva, CAT#BR100050) • 5. […] Greiner 96-well polypropylene plates (Sigma Aldrich, CAT# M7310-100EA) • 7. […] Biacore 8k (Cytiva)
Before docking the Cytiva NTA chip, the Biacore 8k instrument was pretreated with 1X PBS-P + buffer. […] The protein ligand was further crosslinked to the sensor chip surface via an amine coupling kit. Immobilization and binding experiments were performed at room temperature.
After buffer exchanging to 1X PBS-P + buffer containing 2% (v/v) dimethyl sulfoxide, a pre-run was performed at a flow rate of 30 µl/min for at least 30 minutes to obtain a stable surface. […] The flow rate was 30 µl/min. Before the injection of the compound, a blank test was performed under the same conditions.
The SPR sensorgrams were analysed using Biacore Insight Evaluation software with the double-referencing method. The resulting curves were fitted to a 1 : 1 binding model. […] The kinetic constants (kon, koff and KD) obtained from replicate measurements were averaged. The binding half-life (t1/2) for the 1 : 1 binding model and the two-state reaction model was calculated from the dissociation constant koff, using the formula t1/2 = ln2/koff.

Setting [6] is: plasma, read-out: Plasma AUC0-last.
The mark [7] stands for this setting: retina, read-out: Retina AUC0-last.

Each structure is given as a SMILES string. Like-named read-outs stand apart in the source and are kept apart here.

T1 sequence (P00751 470-764): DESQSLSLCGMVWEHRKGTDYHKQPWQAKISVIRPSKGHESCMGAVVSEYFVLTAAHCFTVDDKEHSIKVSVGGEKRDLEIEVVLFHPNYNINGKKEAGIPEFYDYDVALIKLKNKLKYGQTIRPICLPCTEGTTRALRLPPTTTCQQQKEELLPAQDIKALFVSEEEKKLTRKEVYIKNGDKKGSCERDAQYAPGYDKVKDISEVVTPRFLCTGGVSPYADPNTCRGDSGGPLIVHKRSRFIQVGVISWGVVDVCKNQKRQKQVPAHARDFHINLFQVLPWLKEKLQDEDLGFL

For orientation: half-life means the time in which the quantity being followed falls by half. A word on the inhibition: it is the change of the read-out against control, counted positive when it falls. Broadly, the IC50 is the midpoint of a concentration-inhibition curve. In general, Kd refers to the constant that tells how readily two partners part at equilibrium. In general, residence time refers to the mean lifetime of the complex, commonly the reciprocal of the off-rate. In the case of `COc1cc(C)c2[nH]ccc2c1CN1CCC2(C[C@H]1c1ccc(C(=O)O)cc1C)CC(F)(F)C2` [Example 3, (S)-4-(2,2-difluoro-7-((5-methoxy-7-methyl-1H-indol-4-yl)methyl)-7-azaspiro[3.5]nonan-6-yl)-3-methylbenzoic acid], the values for the AUC(0-t) in data set [1] (setting [6]) and in data set [1] (setting [7]) were 12.7 µM·h and 0.796 µM·h, respectively. Also, the half-life in data set [1] is 22.2 h. For the same compound, the “Plasma C3b/iC3b/C3c (1 x 10^6)” value in the data set with AP complement activation is reported as 210.25 ^ns 1 x 10^6. Further, the “inhibitory effects in the ex vivo PD assay in rats” value in data set [2] (2 mg/kg oral, 50% serum) is given as “sustained inhibitory effects”. Moreover, the inhibition at 2 mg/kg in data set [2] is 57.5%. Moreover, the “Post-slurry PLM/XRPD” value in data set [3] (natural evaporation, Acetone, Hydrobromic acid (22 µL), slurried in ethyl acetate) was “√, crystal form A of hydrobromide”; in data set [3] (natural evaporation, Acetone, Hydrochloric acid (22 µL), slurried in ethyl acetate), “√, high crystallinity, crystal form A of hydrochloride”; in data set [3] (natural evaporation, Acetone, Methanesulphonic acid (22 µL), slurried in ethyl acetate) it was “√, crystal form A of methanesulfonat e”; in data set [3] (natural evaporation, Acetone, p-Toluenesulphonic acid (22 µL), slurried in ethyl acetate), “√, crystal form A of p-toluenesulfonate”; in data set [3] (natural evaporation, Methanol, Hydrochloric acid (22 µL), slurried in 2-methyltetrahydrofuran), “√, crystal form B of hydrochloride”. The “PLM/XRPD or slurry solvent” value in data set [3] (natural evaporation, solvent Acetone, Hydrobromic acid (22 µL)) is “×, ethyl acetate”; in data set [3] (natural evaporation, solvent Acetone, Hydrochloric acid (22 µL)), “×, ethyl acetate”; in data set [3] (natural evaporation, solvent Acetone, Methanesulphonic acid (22 µL)) it was “×, ethyl acetate”; in data set [3] (natural evaporation, solvent Acetone, p-Toluenesulphonic acid (22 µL)), “×, ethyl acetate”; in data set [3] (natural evaporation, solvent Methanol, Adipic acid (22 µL)), “√, crystal form A of adipate”; in data set [3] (natural evaporation, solvent Methanol, Fumaric acid (88 µL)), “√, crystal form A of fumarate”. Further, the “PLM/XRPD or slurry solvent” value in data set [3] (natural evaporation, solvent Methanol, Hippuric acid (55 µL)) was “√, crystal form A of hippurate”; in data set [3] (natural evaporation, solvent Methanol, Hydrobromic acid (22 µL)), “√, high crystallinity”; in data set [3] (natural evaporation, solvent Methanol, Hydrochloric acid (22 µL)), “×, 2-methyltetrahydrofuran”; in data set [3] (natural evaporation, solvent Methanol, Malonic acid (22 µL)), “√, crystal form A of malonate”; in data set [3] (natural evaporation, solvent Methanol, Oxalic acid (22 µL)), “√, crystal form A of oxalate”; in data set [3] (natural evaporation, solvent Methanol, Succinic acid (22 µL)) it was “√, crystal form A of succinate”. Moreover, the “PLM/XRPD or slurry solvent” value in data set [3] (solvent Ethyl acetate, Hydrobromic acid (22 µL), Clear → Suspension (slurried)) is recorded as “√, crystal form A of hydrobromide”; in data set [3] (solvent Toluene, Hydrobromic acid (22 µL), Clear → Suspension (slurried)) it was “√, crystal form A of hydrobromide”. Moreover, the Characterization result in data set [3] (Hydrobromic acid) is reported as “Crystal form A of hydrobromide”; in data set [3] (Hydrochloric acid) it was “Crystal form A of hydrochloride”; in data set [3] (Methanesulphonic acid) it was “Crystal form A of methanesulfonate”. The IC50 in data set [4] is < 2 nM. Further, in data set [5], the Kd worked out at 0.17 nM. Further, the “t1/2” value in data set [5] is 1.188 h. Besides, the residence time in data set [5] is 6170 s.

For the compound `Cc1cc(C2CC2)c(CN2CCC3(C[C@H]2c2ccc(C(=O)O)cc2)CC(F)(F)C3)c2cc[nH]c12` [Example 2], the half-inhibitory concentration (IC50) in data set [4] is < 2 nM. Moreover, in data set [5], the Kd was 0.38 nM, the “t1/2” value worked out at 1.214 h and the residence time is 6310 s.

Turning to `CCO[C@H]1CCN(Cc2c(OC)cc(C)c3[nH]ccc23)[C@H](c2ccc(C(=O)O)cc2)C1` [Iptacopan, reference compound], the figures for the AUC(0-t) in data set [1] (setting [6]) and in data set [1] (setting [7]) were 13.5 µM·h and 0.141 µM·h, respectively. The half-life in data set [1] is 5.3 h. In data set [2], the inhibition at 2 mg/kg was -3%.

Turning to `COc1cc(C)c2[nH]ccc2c1CN1CCC2(C[C@H]1c1ccc(C(=O)O)cc1C(F)F)CC(F)(F)C2` [Example 1], the IC50 in data set [4] was < 2 nM. Besides, in data set [5], the Kd came out at 0.77 nM, the “t1/2” value amounted to 0.8911 h and the residence time was 4630 s.
